The record followed here is US20030143645A1, “Quinone reductase 2 and aldehyde dehydrogenase as therapeutic targets” (priority 2001, published 2003).

The subject of test [1] is purine binding proteome (hALDH1 and hQR2). Briefly: ATP affinity array / ATP-Sepharose displacement elution of RBC purine binding proteome. On the set-up: species or system human. The method, then:
ATP-affinity array chromatography. In whole mouse experiments, the animal (except for its tail, feet, skin and intestines) was frozen in liquid N2 and blended in buffer A containing 50 mM Hepes, pH 7.5, 50 mM NaCl, 10 mM MgCl2, 0.1% NONIDET- P40, 1 mM dithiothreitol, 1 μg/ml leupeptin, 100 μg/ml pefabloc and 10 μg/ml aprotinin. Mouse lysate was clarified by centrifugation for 1 hr at 100,000×g. For infected and non-infected RBC's˜1.5×10^9 cells were mixed with an equal volume of 2×buffer A, rocked for 30 min at 4° C., and clarified by centrifugation for 1 hr at 100,000×g. Supernatants were dialyzed overnight against 50 mM Hepes, pH 7.5, 50 mM NaCl, 10 mM MgCl2 and 1 mM dithiothreitol. […] Proteins were resolved by 12% SDS-PAGE and visualized by staining either with Coomassie brilliant Blue R-250 or silver nitrate. Alternatively, proteins were transferred to membrane GeneMate (Kaysville, Utah) in transfer buffer (25 mM Tris, 200 mM glycine, 20% methanol, and 0.01% SDS) for mixed peptide sequencing (Damer et al, J. Biol. Chem. 273:24396 (1998)). hALDH 1 and hQR2 purification and activity assays. Fresh human red blood cells (RBC) were obtained from Valley Biomedical, washed twice with PBS, and lysed in buffer B (0.1% Triton X, 50 mM Tris pH 7.5, 125 mM NaCl, 1 μg/mL aprotonin, 1 μg/mL pepstatin and 10 μg/mL PEFABLOC). Lysates were centrifuged twice at 125,000×g for 1 hr at 4° C. Cleared supernatant was filtered through a […] filter and loaded onto PQ-Sepharose. Pure hALDH was eluted with 5 mM NADH and pure hQR2 with 5 mM NMeN. The eluants were dialyzed overnight at 4° C. against 25 mM Tris pH 8.0 and 1 mM DTT. hALDHl was assayed as described in Table 2. Purified hQR2 was assayed at 22° C. in 100 μM N-methyldihydronicotinamide, 30 μM menadione, 0.1% Triton X-100, 50 mM Tris pH 8.5, 100 μM dicoumarol (unless stated otherwise). N-methyldihydronicotinamide was synthesized (Ortiz-Maldonado et al, Biochemistry 38(50):16636-16647 (1999)) and stored in 100 mM Tris-sulfate pH 8.0.
An ATP affinity array was charged with RBC and P. falciparum (blood stage) infected RBC extract.
chromatography. P. falciparum-infected or non-infected RBCs were lysed by mixing with an equal volume of 2×buffer A and rocking for 30 min at 4° C. 1×buffer A: 50 mM Hepes, pH 7.5, 50 mM NaCl, 10 mM MgCl2, 0.1% NONIDET-P40, 1 mM dithiothreitol, 1 μg/ml leupeptin, 100 μg/ml pefabloc and 1 μg/ml aprotinin. […] Proteins were resolved by 12% SDS-PAGE and visualized by staining with Coomassie brilliant blue R-250 or silver nitrate. Alternatively, proteins were transferred to PVM membrane (Kaysville, Utah) for mixed peptide sequencing (Damer et al, J. Biol. Chem. 273(38):24396-24405 (1998)).
To better understand the mechanism of the quinolines, an attempt was made to identify all quinoline interacting proteins in a cell or animal lysate. To achieve this, a functional proteomics approach was used as outlined in FIG. 7. In this strategy, three different, yet complementary approaches were conducted to identify and validate targets of the quinolines. In step one, termed displacement affinity chromatography, a specific sub-proteome from a cell is captured on an affinity matrix by virtue of its interaction with an immobilized ligand (FIG. 7, Step 1). The sup-proteome is captured after application of saturating amounts of cell lysate and extensive washing of the resin. The compounds of interest (in this case, the quinolines) are then applied to the matrix in parallel and allowed to interact with the bound proteome. […] In the second step, affinity matrices were created by directly linking the quinoline drugs to Sepharose, and after application of cell lysates, all proteins that specifically eluted from these matrices in the presence of drug were identified (FIG. 7 Step 2).

Test [2] addresses T1, QR2 (Homo sapiens, UniProt P16083).
T1 sequence (P16083 1-231): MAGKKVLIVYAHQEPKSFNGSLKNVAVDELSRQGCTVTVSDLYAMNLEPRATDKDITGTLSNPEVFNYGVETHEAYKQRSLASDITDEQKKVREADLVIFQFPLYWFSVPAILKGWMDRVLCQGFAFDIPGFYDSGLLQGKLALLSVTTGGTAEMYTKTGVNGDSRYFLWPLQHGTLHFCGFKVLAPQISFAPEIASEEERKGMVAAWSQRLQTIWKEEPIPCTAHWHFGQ
Briefly: hQR2 activity assay, enzyme purified from human RBC (Example 1). Type of test: biochemical. On the set-up: Pure hALDH was eluted with 5 mM NADH and pure hQR2 with 5 mM NMeN; tissue Valley Biomedical (blood); host or cells: human red blood cells. As to conditions: purified hQR2 from human RBC; menadione substrate; read-out: Kd(app). The method, then: ATP-affinity array chromatography. In whole mouse experiments, the animal (except for its tail, feet, skin and intestines) was frozen in liquid N2 and blended in buffer A containing 50 mM Hepes, pH 7.5, 50 mM NaCl, 10 mM MgCl2, 0.1% NONIDET- P40, 1 mM dithiothreitol, 1 μg/ml leupeptin, 100 μg/ml pefabloc and 10 μg/ml aprotinin. Mouse lysate was clarified by centrifugation for 1 hr at 100,000×g. For infected and non-infected RBC's˜1.5×10^9 cells were mixed with an equal volume of 2×buffer A, rocked for 30 min at 4° C., and clarified by centrifugation for 1 hr at 100,000×g. Supernatants were dialyzed overnight against 50 mM Hepes, pH 7.5, 50 mM NaCl, 10 mM MgCl2 and 1 mM dithiothreitol. […] Lysates were centrifuged twice at 125,000×g for 1 hr at 4° C. […] Pure hALDH was eluted with 5 mM NADH and pure hQR2 with 5 mM NMeN. The eluants were dialyzed overnight at 4° C. against 25 mM Tris pH 8.0 and 1 mM DTT. hALDHl was assayed as described in Table 2. Purified hQR2 was assayed at 22° C. in 100 μM N-methyldihydronicotinamide, 30 μM menadione, 0.1% Triton X-100, 50 mM Tris pH 8.5, 100 μM dicoumarol (unless stated otherwise).
For QR2 Kd apparent values determined using the expression [formula]
The Kd was determined as [formula]
Where Ao=rate in the absence of drug; Aapp=rate+drug; [M]=concentration of menadione.

In the case of `CCN(CC)CCCC(C)Nc1ccnc2cc(Cl)ccc12` (stereo not drawn) [CQ, chloroquine], in test [1] (RBC extract, 5 mM drug (Example 2)), the “proteins eluted from ATP-Sepharose (ALDH1 55 kDa, QR2 26 kDa)” value was “selectively eluted proteins of 55 and 26 kDa”. In addition, the “proteins eluted from ATP affinity array (hALDH1 and hQR2)” value in test [1] (non-infected red cells, drug at [mM]) is reported as “selectively eluted two proteins”. Further, the Kd in test [2] was 24 µM.
